Like-named read-outs stand apart in the source and are kept apart here.
Experiments:
aldose reductase = target: T1, aldose reductase (Bos taurus, UniProt P16116); assay: In vitro inhibition of aldose reductase (modified Hayman and Kinoshita procedure, enzyme from bovine lens); type: biochemical; conditions: read-out: % Inhibition in Vitro
T1 construct: preparation of the enzyme from bovine lens; from tissue; host or cells: bovine lens
Source text: In the present case the procedure of Hayman and Kinoshita was modified in that the final chromatography step was omitted in the preparation of the enzyme from bovine lens.

galactosemic rats = assay: Lowering of galactitol (dulcitol) accumulation in tissues of galactosemic rats; type: in vivo, rat (Sprague-Dawley); conditions: for % Lowering of dulcitol accumulation In Vivo, % D (diaphragm) / % Lowering of dulcitol accumulation In Vivo, % L (lens) / % Lowering of dulcitol accumulation In Vivo, % N (sciatic nerve): 4 days, vs untreated galactosemic rats
Source text: The aldose reductase inhibiting property of the compounds of this invention and the utilization of the compounds in preventing, diminishing and alleviating diabetic complications by lowering polyol accumulation were also demonstrable in experiments using galactosemic rats, see Dvornik et al, Science, 182, 1146 (1973). Such experiments are exemplified hereinbelow after the listing of the following general comments pertaining to these experiments:
(a) Four or more groups of six male rats, 50-70 g, Sprague-Dawley strain, were used. The first group, the control group, was fed a mixture of laboratory chow (rodent Laboratory Chow, Purina) and glucose at 20% (w/w %) concentration. The untreated galactosemic group and the drug-treated groups were fed a similar diet in which galactose is substituted for glucose. The test compound was either admixed to the diet or administered by gavage. In experiments involving compound administration in the diet, the average dose administered was calculated from the actual food intake of the animals in each group. The concentration of galactose in the diet of the treated groups was the same as that for the untreated galactosemic groups.
(b) After four days, the amimals were killed by decapitation. The eyeballs were removed and punctured with a razor blade; the freed lenses were rolled gently on filter paper and weighed. The sciatic nerves were dissected as completely as possible and weighed. Both tissues when frozen can be kept up to two weeks before being analyzed for galactitol.
(c) The polyol determination was performed by a modification of the procedure of M. Kraml and L. Cosyns, Clin. Biochem., 2, 373 (1969). Only two minor reagent changes were made: (a) the rinsing mixture was an aqueous 5% (w/v) trichloroacetic acid solution and (b) the stock solution was prepared by dissolving 25 mg of dulcitol in 100 mL of an aqueous trichloroacetic acid solution. [N.B.: For each experiment the average value found in the tissue from rats fed the glucose diet was subtracted from the individual values found in the corresponding tissue in galactose-fed rats to obtain the amount of polyol accumulated.]
The figures under L, N, and D represent the percentage decrease of galactitol accumulation in the tissues of the lens, sciatic nerve, and diaphragm, respectively, for treated rats as compared to untreated rats.

With CN1C2(CC(=O)NC2=O)c2ccccc2S1(=O)=O (stereo not drawn) [Example 101, 2,3-Dihydro-2-methylspiro[benzisothiazole-3,3'-pyrrolidine]-2',5'-dione 1,1-Dioxide] the inhibition at 10 µM (aldose reductase; 10^-5 M) was 40% and the inhibition at 1 µM (aldose reductase; 10^-6 M) was 6%.

With CN1C(=O)c2cccc(Cl)c2C12CC(=O)NC2=O (stereo not drawn) [Example 125] the “% Lowering of dulcitol accumulation In Vivo, % D (diaphragm)” value (shortened to “% Lowering … (diaphragm)”) (galactosemic rats; 3 mg/kg) was 23%, the “% Lowering … (diaphragm)” value (galactosemic rats; 6 mg/kg) was 37% and the “% Lowering of dulcitol accumulation In Vivo, % L (lens)” value (from here on “% Lowering … (lens)”) (galactosemic rats; 6 mg/kg) was 7%. For the same compound, the “% Lowering of dulcitol accumulation In Vivo, % N (sciatic nerve)” value (“% Lowering … (sciatic nerve)” for short) (galactosemic rats; 6 mg/kg, sciatic nerve) was 21%, the “% Lowering … (diaphragm)” value (galactosemic rats; 10 mg/kg) was 47% and the “% Lowering … (lens)” value (galactosemic rats; 10 mg/kg) was 13%. For the same compound, the “% Lowering … (sciatic nerve)” value (galactosemic rats; 10 mg/kg, sciatic nerve) was 32%, the inhibition at 10 µM (aldose reductase; 10^-5 M) was 88% and the inhibition at 1 µM (aldose reductase; 10^-6 M) was 57%.

CN1C(=O)c2cc(Br)ccc2C12CC(=O)NC2=O (stereo not drawn) [Example 127] was tested, and the inhibition at 10 µM (aldose reductase; 10^-5 M) was 92% and the inhibition at 1 µM (aldose reductase; 10^-6 M) was 71%.

With O=C1CC2(C(=O)N1)c1ccccc1S(=O)(=O)N2Cc1ccccc1 (stereo not drawn) [Example 103] the inhibition at 10 µM (aldose reductase; 10^-5 M) was 45% and the inhibition at 1 µM (aldose reductase; 10^-6 M) was 5%.

CN1C(=O)c2ccc(Cl)cc2C12CC(=O)NC2=O (stereo not drawn) [Example 102, 6-Chloro-2-methylspiro[1H-isoindole-1,3'-pyrrolidine]-2',3,5'(2H)-trione] was tested, and the “% Lowering … (diaphragm)” value (galactosemic rats; 3 mg/kg) was 43%, the “% Lowering … (lens)” value (galactosemic rats; 3 mg/kg) was 9% and the “% Lowering … (sciatic nerve)” value (galactosemic rats; 3 mg/kg, sciatic nerve) was 38%. For the same compound, the “comparison with sorbinil and tolrestat in the sciatic nerve” value (galactosemic rats; 3 mg/kg/day, sciatic nerve) was “comparable results to sorbinil at 4 mg/kg/day and tolrestat at 3 mg/kg/day in the sciatic nerve”, the “% Lowering … (diaphragm)” value (galactosemic rats; 25 mg/kg) was 81% and the “% Lowering … (lens)” value (galactosemic rats; 25 mg/kg) was 51%. For the same compound, the “% Lowering … (sciatic nerve)” value (galactosemic rats; 25 mg/kg, sciatic nerve) was 84%, the inhibition at 10 µM (aldose reductase; 10^-5 M) was 91% and the inhibition at 1 µM (aldose reductase; 10^-6 M) was 80%.

CCN1C(=O)c2ccc(Cl)cc2C12CC(=O)NC2=O (stereo not drawn) [Example 128] showed an inhibition at 10 µM (aldose reductase; 10^-5 M) of 78% and an inhibition at 1 µM (aldose reductase; 10^-6 M) of 37%.

With COc1ccc2c(C(=S)N(C)CC(=O)O)cccc2c1C(F)(F)F [Tolrestat, reference compound] the “% Lowering … (diaphragm)” value (galactosemic rats; 3 mg/kg) was 80% and the “% Lowering … (sciatic nerve)” value (galactosemic rats; 3 mg/kg, sciatic nerve) was 30%.

Work on O=C1CC2(C(=O)N1)c1ccccc1S(=O)(=O)N2Cc1ccc2ccccc2c1Br (stereo not drawn) [Example 112] yielded an inhibition at 10 µM (aldose reductase; 10^-5 M) of 59% and an inhibition at 1 µM (aldose reductase; 10^-6 M) of 25%.

For Cc1cccc2c1C(=O)N(C)C21CC(=O)NC1=O (stereo not drawn) [Example 135, 2,4-dimethylspiro[1H-isoindole-1,3'-pyrrolidine]-2',3,5'(2H)-trione], the “% Lowering … (diaphragm)” value (galactosemic rats; 3 mg/kg) was 37%, the “% Lowering … (diaphragm)” value (galactosemic rats; 6 mg/kg) was 57% and the “% Lowering … (sciatic nerve)” value (galactosemic rats; 6 mg/kg, sciatic nerve) was 50%. For the same compound, the “% Lowering … (diaphragm)” value (galactosemic rats; 10 mg/kg) was 69%, the “% Lowering … (lens)” value (galactosemic rats; 10 mg/kg) was 29% and the “% Lowering … (sciatic nerve)” value (galactosemic rats; 10 mg/kg, sciatic nerve) was 63%. For the same compound, the inhibition at 10 µM (aldose reductase; 10^-5 M) was 84% and the inhibition at 1 µM (aldose reductase; 10^-6 M) was 59%.

In the case of CN1C(=O)c2ccc([N+](=O)[O-])cc2C12CC(=O)NC2=O (stereo not drawn) [Example 132], the inhibition at 10 µM (aldose reductase; 10^-5 M) is reported as 91% and the inhibition at 1 µM (aldose reductase; 10^-6 M) is reported as 77%.

CN1C(=O)c2ccc(F)cc2C12CC(=O)NC2=O (stereo not drawn) [Example 123] gave an inhibition at 1 µM (aldose reductase; 10^-6 M) of 74% and an inhibition at 10 µM (aldose reductase) of 93%.

With CN1C(=O)c2cc(-c3ccccc3)ccc2C12CC(=O)NC2=O (stereo not drawn) [Example 136] the “% Lowering … (diaphragm)” value (galactosemic rats; 3 mg/kg) was 29%, the “% Lowering … (diaphragm)” value (galactosemic rats; 6 mg/kg) was 43% and the “% Lowering … (lens)” value (galactosemic rats; 6 mg/kg) was 13%. For the same compound, the “% Lowering … (sciatic nerve)” value (galactosemic rats; 6 mg/kg, sciatic nerve) was 27%, the “% Lowering … (diaphragm)” value (galactosemic rats; 9 mg/kg) was 55% and the “% Lowering … (lens)” value (galactosemic rats; 9 mg/kg) was 6%. The “% Lowering … (sciatic nerve)” value (galactosemic rats; 9 mg/kg, sciatic nerve) was 34%, the inhibition at 10 µM (aldose reductase; 10^-5 M) was 90% and the inhibition at 1 µM (aldose reductase; 10^-6 M) was 81%.

O=C1CC2(C(=O)N1)c1ccccc1S(=O)(=O)N2Cc1ccc2ccccc2c1 (stereo not drawn) [Example 113] gave an inhibition at 10 µM (aldose reductase; 10^-5 M) of 57% and an inhibition at 1 µM (aldose reductase; 10^-6 M) of 20%.

CN1C(=O)c2ccccc2C12CC(=O)NC2=O (stereo not drawn) [Example 117] gave an inhibition at 1 µM (aldose reductase; 10^-6 M) of 45%.

Work on Cc1ccc2c(c1)C(=O)N(C)C21CC(=O)NC1=O (stereo not drawn) [Example 133] yielded an inhibition at 10 µM (aldose reductase; 10^-5 M) of 89% and an inhibition at 1 µM (aldose reductase; 10^-6 M) of 61%.

COc1ccc2c(c1)C(=O)N(C)C21CC(=O)NC1=O (stereo not drawn) [Example 129] was tested, and the inhibition at 10 µM (aldose reductase; 10^-5 M) was 83% and the inhibition at 1 µM (aldose reductase; 10^-6 M) was 56%.

Work on CCCN1C(=O)c2cc(Cl)c(Cl)cc2C12CC(=O)NC2=O (stereo not drawn) [Example 131] yielded an inhibition at 10 µM (aldose reductase; 10^-5 M) of 49% and an inhibition at 1 µM (aldose reductase; 10^-6 M) of 12%.

With COC(=O)c1ccc2c(c1)C1(CC(=O)NC1=O)N(C)C2=O (stereo not drawn) [Example 134] the inhibition at 10 µM (aldose reductase; 10^-5 M) was 87% and the inhibition at 1 µM (aldose reductase; 10^-6 M) was 49%.

CN1C(=O)c2cc(Cl)ccc2C12CC(=O)NC2=O (stereo not drawn) [Example 120, 5-chloro-2-methylspiro[1H-isoindole-1,3'-pyrrolidine]-2',3,5'(2H)-trione] was tested, and the “% Lowering … (sciatic nerve)” value (galactosemic rats; 3 mg/kg, sciatic nerve) was 21%, the “% Lowering … (diaphragm)” value (galactosemic rats; 81 mg/kg) was 80% and the “% Lowering … (lens)” value (galactosemic rats; 81 mg/kg) was 54%. For the same compound, the “% Lowering … (sciatic nerve)” value (galactosemic rats; 81 mg/kg, sciatic nerve) was 77%, the inhibition at 10 µM (aldose reductase; 10^-5 M) was 88% and the inhibition at 1 µM (aldose reductase; 10^-6 M) was 72%.

In the case of O=C1CC2(C(=O)N1)c1cc(Cl)ccc1C(=O)N2Cc1ccc(Br)cc1F (stereo not drawn) [Example 121], the inhibition at 10 µM (aldose reductase; 10^-5 M) is reported as 85% and the inhibition at 1 µM (aldose reductase; 10^-6 M) is reported as 70%.

O=C1NC(=O)[C@@]2(CCOc3ccc(F)cc32)N1 [Sorbinil, [(4S)2,3-dihydro-6-fluorospiro[4H1-benzopyran-4,4imidazoli-dine2',5dione, reference compound] was tested, and the “% Lowering … (diaphragm)” value (galactosemic rats; 4 mg/kg) was 69%, the “% Lowering … (lens)” value (galactosemic rats; 4 mg/kg) was 46% and the “% Lowering … (sciatic nerve)” value (galactosemic rats; 4 mg/kg, sciatic nerve) was 55%. For the same compound, the inhibition at 10 µM (aldose reductase; 10^-5 M) was 83% and the inhibition at 1 µM (aldose reductase; 10^-6 M) was 45%.

CSc1ccc2c(c1)C(=O)N(C)C21CC(=O)NC1=O (stereo not drawn) [Example 130] showed an inhibition at 10 µM (aldose reductase; 10^-5 M) of 87% and an inhibition at 1 µM (aldose reductase; 10^-6 M) of 60%.

CN1C(=O)c2cc3ccccc3cc2C12CC(=O)NC2=O (stereo not drawn) [Example 124, 2-methylspiro[1H-benz[f]isoindole-1,3'-pyrrolidine]-2',3,5'(2H)-trione] was tested, and the “% Lowering … (diaphragm)” value (galactosemic rats; 10 mg/kg) was 59%, the “% Lowering … (lens)” value (galactosemic rats; 10 mg/kg) was 14% and the “% Lowering … (sciatic nerve)” value (galactosemic rats; 10 mg/kg, sciatic nerve) was 47%. It also gave an inhibition at 10 µM (aldose reductase; 10^-5 M) of 95% and an inhibition at 1 µM (aldose reductase; 10^-6 M) of 82%.

In the case of CN1C(=O)c2c(Cl)cccc2C12CC(=O)NC2=O (stereo not drawn) [Example 126], the inhibition at 10 µM (aldose reductase; 10^-5 M) is reported as 85% and the inhibition at 1 µM (aldose reductase) is reported as 65%.

Source: patent US4946858A, “Novel spirosuccinimides as aldose reductase inhibitors and antihyperglycemic agents” (American Home Products Corporation, priority 1989, dated 1990)
